Test results from patent US10508120B2, “TYK2 inhibitors and uses thereof” (Nimbus Lakshmi, Inc., priority 2017, dated 2019).
Read-outs that look alike come from different tables or passages of the source.

Assays:
[1] = target: JAK2 kinase domain (JH1) (Homo sapiens (Human), UniProt O60674); experiment: JAK2 Radioactive Kinase Assay; format: biochemical; settings: for inhibition at 10 µM: read-out: JAK2 JH1% Inhibition @ 10 μM
Procedure: (§1) The Tyk2 and JAK2 radioactive kinase assay measures the percent inhibition at the Tyk2 kinase domain (DH1) and the percent inhibition at the JAK2 kinase domain (JH1). Results of the assay are expressed as percent inhibition at 10 μM.

[2] = target: Tyk2 kinase domain (DH1) (Homo sapiens (Human), UniProt P29597); experiment: Tyk2 Radioactive Kinase Assay; format: biochemical; settings: for inhibition at 10 µM: read-out: Tyk2 JH1% Inhibition @ 10 μM
Tyk2 kinase domain (DH1), sequence (P29597 897-1176): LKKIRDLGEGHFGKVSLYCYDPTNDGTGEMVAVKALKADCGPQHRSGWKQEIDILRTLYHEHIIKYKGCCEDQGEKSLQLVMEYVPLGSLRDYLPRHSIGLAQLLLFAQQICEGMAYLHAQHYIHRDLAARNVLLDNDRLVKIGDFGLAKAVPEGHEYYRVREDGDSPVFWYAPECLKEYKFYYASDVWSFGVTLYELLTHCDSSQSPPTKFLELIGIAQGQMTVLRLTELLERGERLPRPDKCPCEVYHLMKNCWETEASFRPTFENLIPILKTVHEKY
Procedure: as §1

JAK2 kinase domain (JH1), sequence (O60674 849-1124): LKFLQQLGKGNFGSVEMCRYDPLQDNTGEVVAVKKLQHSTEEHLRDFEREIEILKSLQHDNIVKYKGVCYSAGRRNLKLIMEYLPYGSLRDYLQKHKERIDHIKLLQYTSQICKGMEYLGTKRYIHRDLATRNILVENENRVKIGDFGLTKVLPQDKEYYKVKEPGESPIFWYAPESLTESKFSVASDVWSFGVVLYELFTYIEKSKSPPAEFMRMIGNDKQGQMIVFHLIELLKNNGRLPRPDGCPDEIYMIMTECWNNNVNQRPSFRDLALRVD

Row | Structure (SMILES) | inhibition at 10 µM ([1]; 10 μM compound, 10 μM ATP) [%] | inhibition at 10 µM ([2]; 10 μM compound, 10 μM ATP) [%] | JAK2 JH1% Inhibition @ 10 μM ([1]; 10 μM compound, 10 μM ATP) | Tyk2 JH1% Inhibition @ 10 μM ([2]; 10 μM compound, 10 μM ATP) | further results
1 | CNc1cc(Nc2cccn([C@H]3CCN(C)C[C@@H]3F)c2=O)nc2c(C(=O)NC3CC3)cnn12 [I-685] | – | – | – | – | JAK2 JH1% Inhibition @ 10 μM ([1]; compound at 10 μM, ATP 10 μM): A (percent inhibition at 10 μM lower than 50); Tyk2 JH1% Inhibition @ 10 μM ([2]; compound at 10 μM, ATP 10 μM): A (percent inhibition at 10 μM lower than 50)
2 | CNc1cc(-c2cn(CCN3CCOCC3)c3ncccc23)nc2c(C(=O)N[C@@H]3CC[C@H]3O)cnn12 [I-835] | < 50 | < 50 | – | – | –
3 | CNc1cc(Nc2cccn([C@H]3CC[C@@H]3OC)c2=O)nc2c(C(=O)N[C@@H]3C[C@@H]3F)cnn12 [I-1021] | < 50 | < 50 | – | – | –
4 | CNc1cc(Nc2cccn([C@@H]3C[C@H]3F)c2=O)nc2c(C(=O)NC3CC3)cnn12 [I-866] | < 50 | < 50 | – | – | –
5 | CNc1cc(Nc2cccn([C@H]3CCCOC3)c2=O)nc2c(C(=O)N[C@H]3CC[C@H]3O)cnn12 [I-803] | – | – | – | – | JAK2 JH1% Inhibition @ 10 μM ([1]; compound at 10 μM, ATP 10 μM): A (percent inhibition at 10 μM lower than 50); Tyk2 JH1% Inhibition @ 10 μM ([2]; compound at 10 μM, ATP 10 μM): A (percent inhibition at 10 μM lower than 50)
6 | CNc1cc(-c2cn(CCN3CCN(C)CC3)c3ncccc23)nc2c(C(=O)N[C@H]3CC[C@H]3O)cnn12 [I-906, N-((1S,2R)-2-hydroxycyclobutyl)-7-(methylamino)-5-(1-(2-(4-methylpiperazin-1-yl)ethyl)-1H-pyrrolo[2,3-b]pyridin-3-yl)pyrazolo[1,5-a]pyrimidine-3-carboxamide] | – | – | A (percent inhibition at 10 μM lower than 50) | A (percent inhibition at 10 μM lower than 50) | –
7 | CNc1cc(Nc2cccn([C@H]3C[C@@H]3F)c2=O)nc2c(C(=O)NCC3(CO)CC3)cnn12 [I-1121, 5-((1-((1S,2S)-2-fluorocyclopropyl)-2-oxo-1,2-dihydropyridin-3-yl)amino)-N-((1-(hydroxymethyl)cyclopropyl)methyl)-7-(methylamino)pyrazolo[1,5-a]pyrimidine-3-carboxamide] | – | – | A (percent inhibition at 10 μM lower than 50) | A (percent inhibition at 10 μM lower than 50) | –
8 | CNc1cc(Nc2cccnc2OC2CC2)nc2c(C(=O)N[C@H]3CC[C@H](O)C3)cnn12 [I-489, 5-((2-cyclopropoxypyridin-3-yl)amino)-N-((1S,3S)-3-hydroxycyclopentyl)-7-(methylamino)pyrazolo[1,5-a]pyrimidine-3-carboxamide] | – | – | – | – | JAK2 JH1% Inhibition @ 10 μM ([1]; compound at 10 μM, ATP 10 μM): A (percent inhibition at 10 μM lower than 50); Tyk2 JH1% Inhibition @ 10 μM ([2]; compound at 10 μM, ATP 10 μM): A (percent inhibition at 10 μM lower than 50)
9 | CNc1cc(Nc2cccn([C@@H]3CCCOC3)c2=O)nc2c(C(=O)N[C@@H]3CCC[C@@H](O)C3)cnn12 [I-780] | – | – | – | – | JAK2 JH1% Inhibition @ 10 μM ([1]; compound at 10 μM, ATP 10 μM): A (percent inhibition at 10 μM lower than 50); Tyk2 JH1% Inhibition @ 10 μM ([2]; compound at 10 μM, ATP 10 μM): A (percent inhibition at 10 μM lower than 50)
10 | CNc1cc(Nc2cccc(N3CCO[C@@]4(CCOC4)C3)n2)nc2c(C(=O)NC3CC3)cnn12 [I-828] | < 50 | < 50 | – | – | –
11 | CNc1cc(Nc2cccn(C3CCN(CCF)CC3)c2=O)nc2c(C(=O)N[C@@H]3CC[C@H]3O)cnn12 [I-898] | – | – | A (percent inhibition at 10 μM lower than 50) | A (percent inhibition at 10 μM lower than 50) | –
12 | CNc1cc(Nc2cccn(C3CC4(COC4)C3)c2=O)nc2c(C(=O)N[C@H]3CC[C@H]3O)cnn12 [I-870] | < 50 | < 50 | – | – | –
13 | CNc1cc(Nc2cccn(C(C)C)c2=O)nc2c(C(=O)N[C@@H]3CC[C@H]3O)cnn12 [I-981] | – | – | A (percent inhibition at 10 μM lower than 50) | A (percent inhibition at 10 μM lower than 50) | –
14 | CNc1cc(-c2cn(CCN3CCN(C)CC3)c3ncccc23)nc2c(C(=O)N[C@H]3CC[C@@H]3O)cnn12 [I-920, N-((1S,2S)-2-hydroxycyclobutyl)-7-(methylamino)-5-(1-(2-(4-methylpiperazin-1-yl)ethyl)-1H-pyrrolo[2,3-b]pyridin-3-yl)pyrazolo[1,5-a]pyrimidine-3-carboxamide] | – | – | A (percent inhibition at 10 μM lower than 50) | A (percent inhibition at 10 μM lower than 50) | –
15 | CNc1cc(Nc2cccn(-c3ccccn3)c2=O)nc2c(C(=O)N[C@H]3CC[C@@H]3OC)cnn12 [I-909, N-((1S,2S)-2-methoxycyclobutyl)-7-(methylamino)-5-((2-oxo-2H-[1,2′-bipyridin]-3-yl)amino)pyrazolo[1,5-a]pyrimidine-3-carboxamide] | – | – | – | – | inhibition at 10 µM [1]: < 50%; inhibition at 10 µM [2]: < 50%
16 | CNc1cc(Nc2cc(Cl)cn(C3CCOCC3)c2=O)nc2c(C(=O)N[C@H]3CC[C@@H]3O)cnn12 [I-826] | < 50 | < 50 | – | – | –
